Results reported in patent EP4483954A1 (Masarykova Univerzita, priority 2023, dated 2025).
pIC50: −log10 of the molar value.

Biological target: T1, Haspin (h) (Homo sapiens, UniProt Q8TF76)
T1 construct: purchased Eurofins (KinaseProfiler)
T1 sequence (Q8TF76 1-798): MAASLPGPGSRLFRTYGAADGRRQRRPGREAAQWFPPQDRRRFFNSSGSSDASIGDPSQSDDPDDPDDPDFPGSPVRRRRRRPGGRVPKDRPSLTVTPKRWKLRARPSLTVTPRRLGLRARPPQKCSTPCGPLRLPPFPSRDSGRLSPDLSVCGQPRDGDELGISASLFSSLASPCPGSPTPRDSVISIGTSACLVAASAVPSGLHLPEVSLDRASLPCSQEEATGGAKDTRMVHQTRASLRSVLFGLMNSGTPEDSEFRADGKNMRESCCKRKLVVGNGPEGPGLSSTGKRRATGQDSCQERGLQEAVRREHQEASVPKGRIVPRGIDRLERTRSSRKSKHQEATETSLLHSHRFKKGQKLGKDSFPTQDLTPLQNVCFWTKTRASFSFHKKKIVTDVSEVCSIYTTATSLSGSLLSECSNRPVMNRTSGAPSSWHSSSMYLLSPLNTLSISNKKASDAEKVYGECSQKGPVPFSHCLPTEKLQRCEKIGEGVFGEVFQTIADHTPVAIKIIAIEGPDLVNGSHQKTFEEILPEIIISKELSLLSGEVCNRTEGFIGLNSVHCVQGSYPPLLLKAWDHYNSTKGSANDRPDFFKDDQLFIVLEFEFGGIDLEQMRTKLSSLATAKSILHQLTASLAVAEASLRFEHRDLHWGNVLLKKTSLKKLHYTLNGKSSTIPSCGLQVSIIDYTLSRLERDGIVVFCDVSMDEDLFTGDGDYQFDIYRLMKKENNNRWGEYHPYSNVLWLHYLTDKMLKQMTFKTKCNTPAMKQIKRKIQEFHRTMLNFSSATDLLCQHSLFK
Assay: radiometric kinase assay (KinaseProfiler, Eurofins), Haspin
Type: biochemical
Settings: in vitro radiometric kinase assay, tested at 1 nM to 10 000 nM, no pre-incubation; read-out: inhibitory activities (IC50 values) Haspin
Protocol: The compounds were profiled in the radiometric assays (KinaseProfiler, Eurofins).
Briefly, kinases were diluted in the buffer shown below prior to addition to the reaction mix: • CDKL3, TAF1L: 20 mM Tris/HCl pH 8.5, 0.2 mM EDTA, 0.1% β-mercaptoethanol, 0.01% Brij-35, 5% glycerol, 1 mg/ml BSA; • Haspin: 15 mM MOPS, 0.75 mM EDTA, 0.0075% Brij-35, 3.75% Glycerol, 150 mM NaCl, 0.1% β-mercaptoethanol, 1 mg/mLBSA; • CDKL4, CLK2, PIM1, TRB2: […], 1 mM EDTA, 0.01% Brij-35, 5% Glycerol, 0.1% β-mercaptoethanol, 1 mg/mL BSA.
All compounds were prepared to 50x final assay concentration in 100% DMSO. This working stock of the compound was added to the assay well as the first component in the reaction, followed by the remaining components as detailed in the general assay protocols below. There was no pre-incubation step between the compound and the kinase prior to initiation of the reaction.
Haspin (h) was incubated with 8 mM MOPS pH 7.0, 0.2 mM EDTA, 500 µM RARTLSFAEPG (SEQ ID NO. 3), 10 mM magnesium acetate and γ-^33P-ATP (specific activity and concentration as required). The reaction was initiated by the addition of the Mg/ATP mix. After incubation for 40 minutes at room temperature, the reaction was stopped by the addition of phosphoric acid to a concentration of 0.5%. An aliquot of the reaction was then spotted onto a filter and washed four times for 4 minutes in 0.425% phosphoric acid and once in methanol prior to drying and scintillation counting.
Kinase activity data were expressed as the percent remaining kinase activity in tested samples compared to the vehicle (DMSO) reactions. The compounds were tested at the following concentrations: 1 nM, 3 nM, 10 nM, 30 nM, 100 nM, 300 nM, 1000 nM, 3000 nM, and 10 000 nM; IC50 values and curve fits were then obtained.

SMILES	pIC50
CC(C)(C)OC(=O)N1CCO[C@H](COc2ccc3scc(-c4ccncc4)c3n2)C1 [Preparative Example 117, tert-butyl (S)-2-(((3-(pyridin-4-yl)thieno[3,2-b]pyridin-5-yl)oxy)-methyl)morpholine-4-carboxylate]	5.00 to 5.52
Cn1ccc(-c2ccc3scc(-c4ccc5ncnn5c4)c3n2)n1 [Preparative Example 129, 3-([1,2,4]triazolo[1,5-a]pyridin-6-yl)-5-(1-methyl-1H-pyrazol-3-yl)thieno[3,2-b]pyridine]	6.30 to 7.00
Cn1ccc(Sc2ccc3scc(-c4ccncc4)c3n2)n1	5.52 to 6.30
Cn1cc(-c2ccc3scc(-c4ccc5ncncc5c4)c3n2)cn1 [Preparative Example 47, 5-(1-methyl-1H-pyrazol-4-yl)-3-(quinazolin-6-yl)thieno[3,2-b]pyridine]	6.30 to 7.00
Cn1nc(Nc2ccc3scc(-c4ccncc4)c3n2)cc1N [Preparative Example 104, 1-methyl-N3-(3-(pyridin-4-yl)thieno[3,2-b]pyridin-5-yl)-1H-pyrazole-3,5-diamine]	5.52 to 6.30
Cn1cc(-c2ccc3scc(-c4ccnc(N)c4)c3n2)cn1 [Preparative Example 25, 4-(5-(1-methyl-1H-pyrazol-4-yl)thieno[3,2-b]pyridin-3-yl)pyridin-2-amine]	7.00 to 7.70
Cn1cc(-c2ccc3scc(-c4ccnc(O)c4)c3n2)cn1 [Preparative Example 18, 4-(5-(1-methyl-1H-pyrazol-4-yl)thieno[3,2-b]-pyridin-3-yl)pyridin-2-ol]	6.30 to 7.00
Cn1cc(-c2ccc3scc(-c4cnc5ccnn5c4)c3n2)cn1 [Preparative Example 55, 5-(1-methyl-1H-pyrazol-4-yl)-3-(pyrazolo[1,5-a]-pyrimidin-6-yl)thieno[3,2-b]pyridine]	6.30 to 7.00
CC(C)(C)OC(=O)n1cc(Nc2ccc3scc(-c4ccc5ncnn5c4)c3n2)cn1 [Preparative Example 133, tert-butyl 4-((3-([1,2,4]triazolo[1,5-a]pyridin-6-yl)thieno[3,2-b]pyridin-5-yl)amino)-1H-pyrazole-1-carboxylate]	5.00 to 5.52
Cc1cc(-c2ccn(C)n2)nc2c(-c3ccncc3)csc12 [Preparative Example 158, 7-methyl-5-(1-methyl-1H-pyrazol-3-yl)-3-(pyridin-4-yl)thieno[3,2-b]pyridine]	6.30 to 7.00
Cn1cc(-c2ccc3scc(-c4ccc5nncn5c4)c3n2)cn1 [Preparative Example 59, 3-([1,2,4]-triazolo[4,3-a]pyridin-6-yl)-5-(1-methyl-1H-pyrazol-4-yl)thieno[3,2-b]pyridine]	6.30 to 7.00
Cn1cc(-c2ccc3scc(-c4ccnc(CNC(=O)OC(C)(C)C)c4)c3n2)cn1	5.00 to 5.52
Cn1cc(-c2ccc3scc(-c4ccc(C#N)cc4)c3n2)cn1 [Preparative Example 4, 4-(5-(1-methyl-1H-pyrazol-4-yl)thieno[3.2-b]pyridin-3-yl)benzonitrile]	6.30 to 7.00
CCn1ccc(-c2ccc3scc(-c4ccncc4)c3n2)n1 [Preparative Example 87, 5-(1-ethyl-1H-pyrazol-3-yl)-3-(pyridin-4-yl)thieno[3,2-b]pyridine]	5.52 to 6.30
Cc1ccc(S(=O)(=O)n2ccc3c(-c4csc5ccc(-c6cnn(C)c6)nc45)ccnc32)cc1 [Preparative Example 44, 5-(1-methyl-1H-pyrazol-4-yl)-3-(1-tosyl-1H-pyrrolo[2,3-b]pyridin-4-yl)thieno[3,2-b]pyridine]	5.00 to 5.52
Cn1cc(-c2ccc3scc(-c4ccnc(NC(=O)OC(C)(C)C)c4)c3n2)cn1 [Preparative Example 24, tert-butyl (4-(5-(1-methyl-1H-pyrazol-4-yl)thieno[3,2-b]pyridin-3-yl)pyridin-2-yl)carbamate]	6.30 to 7.00
c1cnnc(Nc2ccc3scc(-c4ccncc4)c3n2)c1 [Preparative Example 113, N-(pyridazin-3-yl)-3-(pyridin-4-yl)thieno[3,2-b]pyridin-5-amine]	6.30 to 7.00

Further lines, results first:

pIC50	SMILES
6.30 to 7.00	Cn1cc(-c2ccc3scc(-c4cncnc4)c3n2)cn1 [Preparative Example 38, 5-(1-methyl-1H-pyrazol-4-yl)-3-(pyrimidin-5-yl)thieno[3,2-b]pyridine]
5.00 to 5.52	CC(C)(C)n1ccc(-c2ccc3scc(-c4ccncc4)c3n2)n1 [Preparative Example 80, 5-(1-(tert-butyl)-1H-pyrazol-3-yl)-3-(pyridin-4-yl)thieno[3,2-b]pyridine]
5.52 to 6.30	c1ccc(-n2ccc(-c3ccc4scc(-c5ccncc5)c4n3)n2)cc1 [Preparative Example 88, 5-(1-phenyl-1H-pyrazol-3-yl)-3-(pyridin-4-yl)thieno[3,2-b]pyridine]
5.52 to 6.30	c1cnc2c(-c3ccc4scc(-c5ccncc5)c4n3)cnn2c1 [Preparative Example 115, 5-(pyrazolo[1,5-a]pyrimidin-3-yl)-3-(pyridin-4-yl)thieno[3,2-b]pyridine]
7.00 to 7.70	c1cc(-c2csc3ccc(Nc4cn[nH]c4)nc23)ccn1 [Preparative Example 98, N-(1H-pyrazol-4-yl)-3-(pyridin-4-yl)thieno[3,2-b]pyridin-5-amine]
6.30 to 7.00	Cn1cc(-c2ccc3scc(-c4ccc5n[nH]cc5c4)c3n2)cn1 [Preparative Example 51, 3-(2H-indazol-5-yl)-5-(1-methyl-1H-pyrazol-4-yl)thieno[3,2-b]-pyridine]
6.30 to 7.00	Cn1cc(Nc2ccc3scc(-c4ccncc4)c3n2)cn1 [Preparative Example 97, N-(1-methyl-1H-pyrazol-4-yl)-3-(pyridin-4-yl)thieno[3,2-b]pyridin-5-amine]
6.30 to 7.00	c1cc(-c2csc3ccc(OCC4CNCCO4)nc23)ccn1 (centres unmarked) [Preparative Example 118, 2-(((3-(pyridin-4-yl)thieno[3,2-b]pyridin-5-yl)oxy)methyl)-morpholine]
5.52 to 6.30	Cn1cc(-c2ccc3scc(-c4ccc(N5CCOCC5)nc4)c3n2)cn1 [Preparative Example 42, 4-(5-(5-(1-methyl-1H-pyrazol-4-yl)thieno[3,2-b]-pyridin-3-yl)pyridin-2-yl)morpholine]
